{"source": "paper PMC11822723", "about": "(ACS Omega, 2025)", "key": {"[1]": {"test": "Aqueous solubility measurements (stepwise solvent addition, stereo microscope)", "assay_type": "physicochemical", "conditions": "for solubility: thermodynamic from solid, read-out: solubility, conc.", "source_text": "Thus, the impact of the pH value on the solubilities of the Ox-Ibu-PIP-X-Mal complexes was investigated. Commercially available 0.9% NaCl has a pH of roughly 5, but when acidified to pH 3, the solubilities of both Ox-Ibu-PIP-X-Mal complexes increased by a factor of 1.5. […] Expectedly, using phosphate buffer or phosphate-buffered saline (PBS) at pH 7.4 further decreased the solubility.\n5% glucose and 0.9% NaCl solutions were purchased from B. Braun. 0.9% NaCl solutions were acidified to pH 3.0 using 1 M HCl and basified to pH 7.0 using 1 M NaOH. Aqueous buffers (citrate, PB, PBS) were prepared in 100 mM concentrations. One mg of compound was weighted using a Sartorius ME215P analytical balance and the solubility was investigated according to the following stepwise interval: +1 μL in the volume range 0–10 μL; +10 μL in the volume range 10–100 μL; +100 μL in the volume range 100–1000 μL; +1000 μL in the volume range 1000–5000 μL. Dissolution of the sample was investigated using a Leica M80 routine stereo microscope (50× magnification) until no solid particles were observed."}, "albumin": {"molecular_target": "T1, albumin (Bos taurus, UniProt P02769)", "T1 construct": "Serum proteins (including albumin) have a retention time of 2–4 min, with the albumin fraction eluting at 4.0 min; tissue Sigma-Aldrich; host or cells: fetal calf serum (whole serum, buffered with 150 mM phosphate pH 7.4)", "T1 sequence (P02769 25-607)": "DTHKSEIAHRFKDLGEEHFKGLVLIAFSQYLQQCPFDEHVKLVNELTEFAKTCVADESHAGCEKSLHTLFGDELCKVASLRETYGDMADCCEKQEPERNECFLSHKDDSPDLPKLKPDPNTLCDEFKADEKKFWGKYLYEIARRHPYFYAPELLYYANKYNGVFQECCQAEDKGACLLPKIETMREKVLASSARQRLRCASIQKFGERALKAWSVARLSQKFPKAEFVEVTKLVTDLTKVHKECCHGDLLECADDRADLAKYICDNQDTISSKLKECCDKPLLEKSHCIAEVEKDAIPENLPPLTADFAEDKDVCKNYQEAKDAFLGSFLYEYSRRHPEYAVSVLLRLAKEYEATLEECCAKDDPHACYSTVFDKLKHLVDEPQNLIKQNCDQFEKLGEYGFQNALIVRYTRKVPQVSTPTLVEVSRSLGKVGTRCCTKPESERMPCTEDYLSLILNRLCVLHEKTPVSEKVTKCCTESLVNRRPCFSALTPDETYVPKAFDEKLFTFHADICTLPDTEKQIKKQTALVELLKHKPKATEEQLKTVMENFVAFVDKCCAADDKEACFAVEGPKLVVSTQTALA", "test": "Albumin binding in phosphate-buffered fetal calf serum, 195Pt traces by SEC-ICP-MS", "assay_type": "in vitro ADME", "conditions": "for bound to albumin after 1 h of incubation / bound to albumin at time point 0: 100 μM in FCS (150 mM phosphate buffer, pH 7.4), 37 °C", "description": "Subsequently, it was of interest how the observed divergent maleimide hydrolysis rates impact the albumin binding kinetics. Therefore, the different platinum(IV) complexes were incubated in phosphate-buffered fetal calf serum (FCS) at 37 °C over 25 h and ^195Pt traces were measured via size-exclusion chromatographyinductively coupled plasma mass spectrometry (SEC-ICP-MS). Serum proteins (including albumin) have a retention time of 2–4 min, with the albumin fraction eluting at 4.0 min (Figure S1) as part of the high-molecular weight fraction (HMWF) and unbound platinum(IV) complexes elute in the low-molecular weight fraction (LMWF) with retention times usually >5 min. Already at time point 0, ∼60% of Ox-OAc-PEG4-Mal (tR = 6.4 min) was bound to albumin at 4.0 min in the HMWF, which increased to ∼90% after 1 h of incubation (Figure 2A). The remaining 10% of the parental complex (at tR > 5 min) most likely either contained a hydrolyzed maleimide moiety, unable to bind albumin, or were conjugated to low-molecular weight sulfur-containing compounds. The formed platinum(IV)-albumin conjugate remained stable for more than 25 h. […] In the LMWF, only a small peak of still intact Ox-OAc-PIP-C2-Mal (tR 6.5 min) could be observed, while a major signal (∼35%) of most likely already hydrolyzed maleimide compound appeared at tR 5.8 min. This is in very good agreement with the very fast hydrolysis of the maleimide moiety shown above (see Figure 1).\nFCS was purchased from Sigma-Aldrich and buffered with 150 mM phosphate pH 7.4 in order to guarantee a stable pH. The platinum(IV) complexes (5 mM) were dissolved in 150 mM phosphate buffer (pH 7.4) and diluted […] in the buffered serum to obtain a final concentration of 100 μM. The samples were incubated in the autosampler at 37 °C and analyzed at 0, 1, 4, 24, and 25 h time points. Between each sample a pure water blank was measured. For SEC-ICP-MS measurements an Agilent 1260 Infinity system coupled to an Agilent 7800 ICP-MS equipped with a dynamic reaction cell was used. Oxygen (purity 5.5, Messer Austria GmbH, Gumpoldskirchen, Austria) was used as reaction gas."}, "[2]": {"test": "Hydrolytic stability of the maleimide in phosphate buffer, UHPLC", "assay_type": "physicochemical", "conditions": "1 mM, 150 mM phosphate buffer pH 7.4, 20 °C", "description": "It is known from literature that most maleimides are prone to hydrolysis at physiological pH.[38] Consequently, the hydrolytic stabilities of the three oxaliplatin(IV)-acetato complexes bearing the piperazine maleimides were studied in comparison to the reference complex Ox-OAc-PEG4-Mal. The hydrolysis of the platinum(IV)-acetato complexes was investigated in phosphate buffer at pH 7.4 and 20 °C over 5 h and the amount of remaining intact parental complex was monitored with ultrahigh-performance liquid chromatography (UHPLC) (Figure 1). Ox-OAc-PIP-C2-Mal hydrolyzed rapidly, with only traces of intact platinum(IV)-maleimide remaining after 1 h incubation time. […] These dramatic differences are in line with some model maleimide compounds reported in literature, also containing piperazine moieties.[38] The strong inductive effects of the protonated quaternary nitrogen of the piperazine can explain the extremely fast hydrolysis of Ox-OAc-PIP-C2-Mal.\nPhosphate buffer (150 mM, pH 7.4) containing 1 mM platinum compound was incubated at 20 °C. The reaction was monitored on a Thermo Scientific Dionex UltiMate 3000 UHPLC-system using a Waters Acquity UPLC BEH C18 1.7 μm 3.0 mm × 50 mm column. Milli-Q water, containing 0.1% formic acid, and acetonitrile containing 0.1% formic acid were used as eluents. A gradient of 5–95% over 5 min was used. […]"}, "[3]": {"conditions": "0.9% NaCl solution, pH 5, saline or isotonic, 0.9% NaCl"}, "[4]": {"conditions": "5% glucose solution, saline or isotonic, 5% glucose"}}, "note": "Read-outs that look alike come from different tables or passages of the source.", "data": [{"smiles": "CC(C)[C@H](NC(=O)CCC(=O)NCCN1CCN(CCOCCN2C(=O)C=CC2=O)CC1)C(=O)N[C@@H](CCCNC(N)=O)C(=O)Nc1ccc(CO)cc1", "note": "[Mal-O-PIP-Succ-ValCitPAB-OH, N1-(2-(4-(2-(2-(2,5-Dioxo-2,5-dihydro-1H-pyrrol-1-yl)ethoxy)ethyl)piperazin-1-yl)ethyl)-N4-((S)-1-(((S)-1-((4-(hydroxymethyl)phenyl)amino)-1-oxo-5-ureidopentan-2-yl)amino)-3-methyl-1-oxobutan-2-yl)succinamide]", "values": [{"measurement": "solubility", "setting": "[1]; [3]", "value": 1300, "unit": "mM"}, {"measurement": "solubility", "setting": "[1]; [4]", "value": 600, "unit": "mM"}]}, {"smiles": "CC(C)[C@H](NC(=S)NCCN1CCN(CCOCCN2C(=O)C=CC2=O)CC1)C(=O)N[C@@H](CCCNC(N)=O)C(=O)Nc1ccc(CO)cc1", "note": "[Mal-O-PIP-ThioU-ValCitPAB-OH, (S)-2-((S)-2-(3-(2-(4-(2-(2-(2,5-Dioxo-2,5-dihydro-1H-pyrrol-1-yl)ethoxy)ethyl)piperazin-1-yl)ethyl)thioureido)-3-methylbutanamido)-N-(4-(hydroxymethyl)phenyl)-5-ureidopentanamide]", "values": [{"measurement": "solubility", "setting": "[1]; [3]", "value": 1400, "unit": "mM"}, {"measurement": "solubility", "setting": "[1]; [4]", "value": 600, "unit": "mM"}]}, {"smiles": "CC(=O)[O][Pt]12([O]C(=O)NCCN3CCN(CCOCCN4C(=O)C=CC4=O)CC3)([NH][C@@H]3CCCC[C@H]3[NH]1)[O]C(=O)C(=O)[O]2", "note": "[Ox-OAc-PIP-O-Mal, (OC-6–34)-Acetato-[(1R,2R)-1,2-cyclohexanediamino][(2-(4-(2-(2-(2,5-dioxo-2,5-dihydro-1H-pyrrol-1-yl)ethoxy)ethyl)piperazin-1-yl)ethyl)carbamato]oxalatoplatinum(IV)]", "values": [{"measurement": "bound to albumin after 1 h of incubation", "setting": "albumin", "value": "~95", "unit": "%"}, {"measurement": "bound to albumin at time point 0", "setting": "albumin", "value": 75, "unit": "%"}]}, {"smiles": "CC(C)[C@H](NC(=O)CCN1CCN(CCOCCN2C(=O)C=CC2=O)CC1)C(=O)N[C@@H](CCCNC(N)=O)C(=O)Nc1ccc(CO)cc1", "note": "[Mal-O-PIP-ValCitPAB-OH, (S)-2-((S)-2-(3-(4-(2-(2-(2,5-Dioxo-2,5-dihydro-1H-pyrrol-1-yl)ethoxy)ethyl)piperazin-1-yl)propanamido)-3-methylbutanamido)-N-(4-(hydroxymethyl)phenyl)-5-ureidopentanamide]", "values": [{"measurement": "solubility", "setting": "[1]; [3]", "value": 1500, "unit": "mM"}, {"measurement": "solubility", "setting": "[1]; [4]", "value": 700, "unit": "mM"}]}, {"smiles": "CC(=O)[O][Pt]12([O]C(=O)NCCN3CCN(CCN4C(=O)C=CC4=O)CC3)([NH][C@@H]3CCCC[C@H]3[NH]1)[O]C(=O)C(=O)[O]2", "note": "[Ox-OAc-PIP-C2-Mal, (OC-6–34)-Acetato-[(1R,2R)-1,2-cyclohexanediamino][(2-(4-(2-(2,5-dioxo-2,5-dihydro-1H-pyrrol-1-yl)ethyl)piperazin-1-yl)ethyl)carbamato]oxalatoplatinum(IV)]", "values": [{"measurement": "bound to albumin at time point 0", "setting": "albumin", "value": "~60", "unit": "%"}, {"measurement": "signal of most likely already hydrolyzed maleimide compound in LMWF (tR 5.8 min)", "setting": "albumin; FCS, pH 7.4, 37 °C", "value": "~35", "unit": "%"}, {"measurement": "course of albumin binding over time", "setting": "albumin; FCS, pH 7.4, 37 °C, over 25 h", "value": "did not further increase over time"}]}, {"smiles": "CC(=O)[O][Pt]12([O]C(=O)NCCOCCOCCOCCOCCN3C(=O)C=CC3=O)([NH][C@@H]3CCCC[C@H]3[NH]1)[O]C(=O)C(=O)[O]2", "note": "[Ox-OAc-PEG4-Mal, (OC-6–34)-Acetato-[(1R,2R)-1,2-cyclohexanediamino][(14-(2,5-dioxo-2,5-dihydro-1H-pyrrol-1-yl)-3,6,9,12-tetraoxatetradecyl)carbamato]oxalatoplatinum(IV)]", "values": [{"measurement": "intact maleimide / intact complex remaining after 5 h incubation", "setting": "[2]", "value": "~70", "unit": "%"}, {"measurement": "bound to albumin after 1 h of incubation", "setting": "albumin", "value": "~90", "unit": "%"}, {"measurement": "bound to albumin at time point 0", "setting": "albumin", "value": "~60", "unit": "%"}, {"measurement": "time the formed platinum(IV)-albumin conjugate remained stable", "setting": "albumin; FCS, pH 7.4, 37 °C", "value": "over 25 h"}, {"measurement": "remaining parental complex not bound to albumin (tR > 5 min)", "setting": "albumin; FCS, pH 7.4, 37 °C, after 1 h", "value": 10, "unit": "%"}]}, {"smiles": "CC(C)C(NC(=O)CCOCCOCCOCCOCCN1C(=O)C=CC1=O)C(=O)NC(CCCNC(N)=O)C(=O)Nc1ccc(CO)cc1", "note": "(stereo not shown) [Mal-PEG4-ValCitPAB-OH, reference compound]", "values": [{"measurement": "solubility, conc.", "setting": "[1]; 0.9% NaCl", "value": 35, "unit": "mM"}, {"measurement": "solubility", "setting": "[1]; [3]", "value": 40, "unit": "mM"}, {"measurement": "solubility, conc.", "setting": "[1]; 5% glucose", "value": 24, "unit": "mM"}, {"measurement": "solubility", "setting": "[1]; [4]", "value": 20, "unit": "mM"}]}, {"smiles": "CC(=O)[O][Pt]12([O]C(=O)NCCN3CCN(CCCCCN4C(=O)C=CC4=O)CC3)([NH][C@@H]3CCCC[C@H]3[NH]1)[O]C(=O)C(=O)[O]2", "note": "[Ox-OAc-PIP-C5-Mal, (OC-6–34)-Acetato-[(1R,2R)-1,2-cyclohexanediamino][(2-(4-(5-(2,5-dioxo-2,5-dihydro-1H-pyrrol-1-yl)pentyl)piperazin-1-yl)ethyl)carbamato]oxalatoplatinum(IV)]", "values": [{"measurement": "bound to albumin after 1 h of incubation", "setting": "albumin", "value": "~95", "unit": "%"}, {"measurement": "bound to albumin at time point 0", "setting": "albumin", "value": 69, "unit": "%"}]}]}
